Entries after “also recorded” stand apart in the source; their conditions may differ. Strand notation (5' to 3'): a small letter for the sugar, then the base; units joined by * are phosphorothioate-linked, units joined directly phosphodiester-linked; [ ] holds rarer units or linkages, { } end groups; capitals alone tell only the bases. [OPr] = 2'-O-propyl ribonucleotide; d = 2'-deoxy (DNA); m = 2'-O-methyl; f = 2'-fluoro
What follows are substances tested on crude HeLa cellular extracts (assay: not given). Settings: not given.

Row | T½ | Substance | degradation in HeLa cell extract
1 | approximately 5.5 hours | CsCsAsCsAsCsCsGoAoCsGsGsCsGsCsCsC [Oligonucleotide 4546] | –
2 | – | 4248 (CCACACCGACGGCGCCC; 2'-O-methyl wings, mixed phosphorothioate/phosphodiester, pattern not given here) [Oligonucleotide 4248] | no degradation after 5 hours
3 | 1.75 h | CsCsAsCsAsCsCoGoAoCoGoGsCsGsCsCsC [Oligonucleotide 4606] | –
4 | ~3.75 h | CsCsAsCsAsCsCsGoAoCoGsGsCsGsCsCsC [Oligonucleotide 4551] | –
5 | ~3.2 h | CsCsAsCsAsCsCoGoAoCoGsGsCsGsCsCsC [Oligonucleotide 4593] | –

Row | Substance | T½ | degradation in HeLa cell extract
6 | CsCsAsCoAoCoCoGoAoCoGoGoCoGsCsCsC [Oligonucleotide 4241] | 0.9 h | –
7 | 4233 (CCACACCGACGGCGCCC; 2'-O-methyl wings, mixed phosphorothioate/phosphodiester, pattern not given here) [Oligonucleotide 4233] | 7 h | –

Each substance was assayed on H-ras (assay: ras transactivation reporter gene assay). Settings: not given.
Type: cell-based
Text: The expression plasmid pSV2-oli, containing an activated (codon 12, GGC→GTC) H-ras cDNA insert under control of the constitutive SV40 promoter, was a gift from Dr. Bruno Tocque (Rhone-Poulenc Sante, Vitry, France). This plasmid was used as a template to construct, by PCR, a H-ras expression plasmid under regulation of the steroid-inducible mouse mammary tumor virus (MMTV) promoter. To obtain H-ras coding sequences, the 570 bp coding region of the H-ras gene was amplified by PCR. The PCR primers were designed with unique restriction endonuclease sites in their 5′-regions to facilitate cloning. The PCR product containing the coding region of the H-ras codon 12 mutant oncogene was gel purified, digested, and gel purified once again prior to cloning. This construction was completed by cloning the insert into the expression plasmid pMAMneo (Clontech Laboratories, Calif.).
The ras-responsive reporter gene pRD053 was used to detect ras expression. [Owen et al., Proc. Natl. Acad. Sci. U.S.A., 87, 3866 (1990).

Row | Substance | antisense activity against H-ras (inhibition of ras expression)
8 | Oligonucleotide 4689: SEQ ID NO: 1, 2′-fluoro-modified nucleotides flanking a 5-deoxy gap (CCACACCGACGGCGCCC; sugars from the 5' end f6 d5 f6, backbone and methylation of C not given here) | also active

Each substance was assayed on PKC-α mRNA (assay: PKC-α mRNA levels by Northern blot analysis). Settings: FIGS. 3, 4 and 5; result in words.
Type: cell-based, human
Description: Oligonucleotides having SEQ ID NO: 4 were synthesized as uniformly phosphorothioate chimeric oligonucleotides having a centered deoxy gap of varying lengths flanked by 2′-O-methylated regions. These oligonucleotides (500 nM concentration) were tested for effects on PKC-α mRNA levels by Northern blot analysis.

Row | Substance | effect on PKC-α mRNA levels
9 | 7082 (dT*dC*dT*dC*dG*dC*dT*dG*dG*dT*dG*dA*dG*dT*dT*dT*dC; antisense) [Oligonucleotide 7082] | most active in reducing PKC-α mRNA levels
10 | 7273 (AAAACGTCAGCCATGGTCCC; 2'-O-propyl/deoxy, mixed P=S/P=O backbone, chemistry not fully specified) [Oligonucleotide 7273] | more active than their 2′-O-methyl counterparts at lowering PKC-α mRNA levels
11 | 5352 (AAAACGTCAGCCATGGTCCC; sugars from the 5' end m6 d6 m8, all phosphorothioate, methylation of C and T or U not given here) [Oligonucleotide 5352] | show reduction of PKC-α mRNA; also recorded: most active
12 | 6632 (dT*dT*dC*dT*dC*dG*dC*dT*dG*dG*dT*dG*dA*dG*dT*dT*dT*dC; antisense) [Oligonucleotide 6632] | most active in reducing PKC-α mRNA levels
13 | 6653 (TTCTCGCTGGTGAGTTTC; antisense; sugars from the 5' end [OPr]3 d11 [OPr]4, all phosphorothioate, methylation of C not given here) [Oligonucleotide 6653] | most active in reducing PKC-α mRNA levels
14 | 7008 (mA*mAmAmAmCdG*dT*dC*dA*dG*dC*dC*dA*dT*dGdGdTdCdC*dC) [Oligonucleotide 7008] | show reduction of PKC-α mRNA

The substances below were run on codon-12 point mutation of mutant (activated) H-ras RNA (assay: not given). Settings: not given.
Type: cell-based, human

Row | Substance | effect on ras expression (ras-luciferase reporter system), chimeric backbone-modified oligonucleotides
15 | CsCsAsCoAoCoCoGoAoCoGoGoCoGsCsCsC [Oligonucleotide 4241] | completely inactive

From US20030187240A1, “2' -modified oligonucleotides” (ISIS Pharmaceuticals, Inc., priority 1990, published 2003)
